Entries after “also recorded” stand apart in the source; their conditions may differ.

Data set [1] concerns patients with advanced solid tumours. The text has this:
This phase 1 open-label, multicentre, dose-escalation, and safety expansion study evaluated veliparib in combination with bimonthly FOLFIRI in patients with advanced solid tumours. The primary objectives were to determine the maximum tolerated dose (MTD) and establish the recommended phase 2 dose (RP2D) of the combination therapy. Secondary objectives were to assess the safety and tolerability, PK profile, and exploratory efficacy of the combination for each of the FOLFIRI regimens. Patients received veliparib and bimonthly FOLFIRI in 28-day cycles. Veliparib was administered on days 15–19 in cycle 1 and on days 1–5 and 15–19 in subsequent cycles (Fig. 1). Patients with stable disease or better status could continue veliparib and bimonthly FOLFIRI at the investigator’s discretion until progressive disease (PD), unacceptable toxicity, or FOLFIRI discontinuation. The trial was registered with the ClinicalTrials.gov registry (NCT01123876) and was approved by appropriate independent ethics committees/institutional review boards prior to initiation. The study was performed in accordance with the 1964 Declaration of Helsinki and its later amendments. Written informed consent was obtained from all patients before study enrollment.
Dose escalation occurred in three parts to evaluate the MTD/RP2D of three different bimonthly FOLFIRI regimens in combination with veliparib (Fig. 1). A minimum of three patients per dose level were included for dose-toxicity modeling. In part 1, dose escalation began with veliparib twice daily (BID) on days 15–19 of cycle 1 (to allow the determination of single-agent PK for irinotecan, the active metabolite of irinotecan (SN-38), folinic acid, and 5-FU on cycle 1 day 1). In parts 2 and 3, dose escalation began with veliparib BID on day 15 of cycle 1. The differences in the dosing schedules of parts 1, 2, and 3 relate to dosing of irinotecan and 5-FU, and are detailed in Fig. 1. In all parts, veliparib continued to be administered on days 1–5 and 15–19 of each subsequent 28-day cycle. […]

The nature of data set [2]: Veliparib pharmacokinetics, cycle 1 day 15. Type of data set: in vivo, human. The following applies: co-administered with FOLFIRI; 10–270 mg BID.
A short description of data set [3]: Pharmacokinetics of FOLFIRI components with and without veliparib (relative bioavailability). The conditions noted are these: cycle 1 day 15 vs cycle 1 day 1. How it is done: Treatment-emergent adverse events (TEAEs) were assessed from the time of study drug administration until 30 days following discontinuation of study drug. TEAEs were assessed according to the National Cancer Institute Common Terminology Criteria for Adverse Events version 4.0. In dose-escalation cohorts, blood samples were collected on day 15 of cycle 1 for veliparib PK, and on days 1 and 15 of cycle 1 for PK assessment of the FOLFIRI components irinotecan, SN-38, folinic acid (leucovorin), and 5-FU. Exploratory efficacy end points included objective response rate (ORR), time to disease progression (TTP), duration of overall response (DOR), and ECOG performance status. Objective response rate included confirmed complete response (CR) and partial response (PR). Objective response rate evaluation was based on Response Evaluation Criteria in Solid Tumours version 1.1. Objective response rate was calculated for all patients with one or more measurable lesions at baseline. Time to disease progression was defined as the number of days from the date the patient started study drug to the date of the patient’s disease progression. Duration of overall response was defined as the number of days from the day criteria were met for CR or PR (whichever was recorded first) to the date that PD was objectively documented. If a patient was still responding, the patient’s data were censored at the date of the last study visit at which a tumour assessment was performed. Analyses of change and/or percentage change from baseline for tumour size were performed for each scheduled post-baseline visit and for the final visit. ECOG performance status was assessed at all visits, with descriptive statistics summarised for each assessment. In addition, a mean change from baseline to each assessment time was summarised.
The sample size was based on clinical justification. No specific statistical hypothesis tests were planned, with descriptive statistics used for the analysis of safety, PK, and tumour response data. The study population for all safety and preliminary efficacy analyses included patients who received one or more doses of study medication. Data from parts 1–3 of the dose-escalation cohort were combined for assessment of the effect of veliparib on the PK of irinotecan, SN-38, and folinic acid. Linear mixed effects models were performed on natural logarithmically transformed maximum plasma concentration (Cmax) and area under the plasma or serum concentration-time curve (AUC) to compare exposure of irinotecan, SN-38, and folinic acid with and without the administration of veliparib. Point estimates and the corresponding 90% confidence intervals (CIs) of the ratio of central values with and without veliparib administration were calculated.

In data set [4] the test system is patients with advanced solid tumours. Further details: method as in PMID 26842236. The conditions noted are these: veliparib 40 mg BID days 1–14 of a 21-day cycle with irinotecan 100 mg/m^2 day 1 and 8; cited from earlier work.
Data set [5] concerns triple-negative breast cancer. Details: method as in doi:10.1158/1538-7445.AM2015-CT325. The conditions noted are these: veliparib in combination with irinotecan; cohort with germline BRCA mutation; cited from earlier work.

Take `C[C@]1(c2nc3c(C(N)=O)cccc3[nH]2)CCCN1` [veliparib, Veliparib]: the “Recommended phase 2 dose (RP2D) of veliparib” value in data set [1] (human, in vivo) is on record as 200 mg BID. Besides, the “Maximum tolerated dose (MTD)” value in data set [1] (veliparib 10–270 mg BID plus FOLFIRI, Bayesian CRM) was “not reached”. The “Dose proportionality of veliparib exposure (Cmax, AUC)” value in data set [2] is reported as “approximately dose-proportional; also recorded: approximate dose proportionality”. Besides, the “Effect of veliparib on the pharmacokinetics of FOLFIRI components” value is “no significant effect” in data set [3] and “no effect” in data set [3] (listed as Veliparib). Moreover, the Tolerability entry in data set [4] is on record as “well tolerated”. Moreover, in data set [5], the Preliminary response rate is given as 88%.

Source of the values: article PMC5933261, “A phase 1 dose-escalation study of veliparib with bimonthly FOLFIRI in patients with advanced solid tumours” (British Journal of Cancer, 2018).
